Measured values taken from patent publication US11235020B2, “Methods and compositions for inhibiting glyoxalase 1 (GLO1)” (priority 2013, dated 2022).
Read-outs that look alike come from different tables or passages of the source.

Assays:
[1] = test system: neuronal cell death; settings: literature (Di Loreto 2008; Di Loreto 2004; Li 2010); cited from earlier work
[2] = test system: sodium currents; test: Voltage-gated sodium currents in CGN; format: cell-based, rat; settings: 10 μM MG
Protocol: Sodium currents: Sodium currents were studied as previously described (Plant 2006) using a bath solution containing 130 mM NaCl, 5 mM CsCl, 2 mM CaCl2, 1.2 mM MgCl2, 5 mM glucose, and 10 mM HEPES adjusted to pH 7.4 with NaOH. 500 nM tetrodotoxin (Sigma) was included in the bath […]. The electrode solution contained 60 mM CsCl, 80 mM CsF, 10 mM EGTA, 1 mM CaCl2, 1 mM MgCl2, 5 mM Na2ATP, and 10 mM HEPES adjusted to pH 7.4 with CsOH. All voltage-gated currents were studied following a P/5 leak subtraction protocol, and voltage-clamp errors were minimized with 80% series resistance compensation.

[3] = test system: picrotoxin-induced seizures; test: Picrotoxin-induced seizures assessed by EEG; format: in vivo, mouse; settings: MG 200 mg/kg pre-treatment, picrotoxin 7 mg/kg
Protocol: FIGS. 37A-37D: Exogenous MG attenuates picrotoxin-induced seizures as assessed by EEG. B6 mice were pre-treated with vehicle or MG (200 mg/kg) prior to seizure induction with picrotoxin (7 mg/kg). […] P=0.036 by Mann-Whitney U test. […] P=0.028 by Mann-Whitney U test. […] P=0.036 by Mann-Whitney U test. […] P=0.014 by Mann-Whitney U test. […] P=0.028 by Mann-Whitney U test. FIG. 37D, Representative EEG recordings of a mouse during baseline period (prior to any injections), after acute saline and picrotoxin (7 mg/kg) injections, or after acute MG (200 mg/kg) and picrotoxin (7 mg/kg) injections. […] Seizures are associated with high muscle activity, as indicated by the electromyography (EMG) trace. […] EEG traces correspond to four differential recordings from each of four subdural electrodes (EEG1 and EEG2 (right cortical hemisphere), EEG3 and EEG4 (left cortical hemisphere)). EMG activity was recorded using two fine wires placed into the neck muscle. Calibration mark: 500 μV/mm and 1 second. Data are mean±SEM. n=4 vehicle, 5 MG (200 mg/kg). *P<0.05 versus vehicle-treated group as determined by Mann-Whitney U tests.
In order to validate these behavioral data, the inventors assessed seizure activity by EEG analysis of mice treated with 7 mg/kg picrotoxin. […] Thus, MG attenuates seizures induced by GABAA receptor blockade at both the behavioral and EEG level.

[4] = test system: GABAA receptors in cerebellar granule neurons; test: Whole-cell patch clamp in cerebellar granule neurons (CGN); format: cell-based, rat
Protocol: Reagents: All reagents were obtained from Sigma-Aldrich.
Culture of rat CGN: CGN were cultured from mixed-sex Sprague-Dawley rats. Tissue was dissected from 6- to 8-day-old rats. Cells were suspended in minimal essential medium supplemented with 10% fetal calf serum, 26 mM glucose, 19 mM KCl, 2 mM 1-glutamine, and penicillin/streptomycin (50 IU/ml and 50 μg/ml). Cells were seeded on poly-1-lysine-coated coverslips and incubated in a humidified atmosphere containing 5% CO2 at 37° C. After 48 hours, the culture medium was replaced with minimal essential medium supplemented with 10% horse serum, 26 mM glucose, 19 mM KCl, 2 mM 1-glutamine, penicillin/streptomycin (50 IU/ml and 50 μg/ml), and 80 μM 1-fluorodeoxyuridine. Culture medium was exchanged every three days. All recordings were made from cells between days 6 to 9 in culture.
Filter and sampling frequencies were 5 and 25 kHz, respectively, for voltage-clamp experiments and 1 and 10 kHz, respectively, for current-clamp recording. Experiments were performed at 32° C. using a feedback-controlled heated perfusion system (Warner Instruments). Vm, ligand-gated currents, and potassium channel currents were studied in a bath solution containing 1 mM CaCl2, 1 mM MgCl2, 4 mM KCl, 140 mM NaCl, 5 mM glucose, and 10 mM HEPES (pH 7.4). […] Electrodes were coated with Sigmacote (Sigma) prior to use.
Ligand-gated currents: Ligand-gated currents were studied in voltage-clamp mode by application of reagents to cells held at −50 mV.

[5] = target: T1, GABAB receptors (Rattus norvegicus, UniProt Q9Z0U4); test: GABAB receptor activation (IKIR) in CGN; format: cell-based; settings: 10 μM MG in the presence of SR
T1 construct: endogenous in cells; host or cells: primary rat cerebellar granule neurons
T1 sequence (Q9Z0U4 17-960 limits assumed): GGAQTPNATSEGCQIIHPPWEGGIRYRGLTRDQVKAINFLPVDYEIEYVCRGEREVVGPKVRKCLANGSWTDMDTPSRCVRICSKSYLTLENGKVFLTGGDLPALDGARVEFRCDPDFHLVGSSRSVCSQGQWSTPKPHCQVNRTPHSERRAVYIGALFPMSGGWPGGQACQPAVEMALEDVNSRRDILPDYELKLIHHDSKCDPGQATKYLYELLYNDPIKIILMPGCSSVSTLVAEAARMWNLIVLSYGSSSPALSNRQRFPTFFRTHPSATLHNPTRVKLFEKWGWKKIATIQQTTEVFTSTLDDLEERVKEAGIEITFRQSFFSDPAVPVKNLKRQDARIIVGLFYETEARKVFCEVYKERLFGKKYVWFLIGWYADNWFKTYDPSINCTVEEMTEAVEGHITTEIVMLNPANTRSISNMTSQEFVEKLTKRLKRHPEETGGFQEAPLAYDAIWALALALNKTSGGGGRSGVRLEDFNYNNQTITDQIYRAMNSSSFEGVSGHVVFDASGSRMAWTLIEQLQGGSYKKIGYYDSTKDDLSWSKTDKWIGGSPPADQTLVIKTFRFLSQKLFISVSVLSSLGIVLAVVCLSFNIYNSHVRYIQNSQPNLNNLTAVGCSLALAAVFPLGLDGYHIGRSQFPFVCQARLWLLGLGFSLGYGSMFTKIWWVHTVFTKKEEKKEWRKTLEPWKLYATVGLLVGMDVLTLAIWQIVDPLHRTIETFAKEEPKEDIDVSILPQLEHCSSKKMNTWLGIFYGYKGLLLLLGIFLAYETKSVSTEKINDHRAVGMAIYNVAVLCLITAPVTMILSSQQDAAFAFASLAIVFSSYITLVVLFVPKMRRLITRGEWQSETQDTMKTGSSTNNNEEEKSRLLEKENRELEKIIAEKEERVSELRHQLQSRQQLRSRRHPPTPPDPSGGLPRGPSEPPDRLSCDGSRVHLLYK
T1 sequence (O88871 41-940 partner): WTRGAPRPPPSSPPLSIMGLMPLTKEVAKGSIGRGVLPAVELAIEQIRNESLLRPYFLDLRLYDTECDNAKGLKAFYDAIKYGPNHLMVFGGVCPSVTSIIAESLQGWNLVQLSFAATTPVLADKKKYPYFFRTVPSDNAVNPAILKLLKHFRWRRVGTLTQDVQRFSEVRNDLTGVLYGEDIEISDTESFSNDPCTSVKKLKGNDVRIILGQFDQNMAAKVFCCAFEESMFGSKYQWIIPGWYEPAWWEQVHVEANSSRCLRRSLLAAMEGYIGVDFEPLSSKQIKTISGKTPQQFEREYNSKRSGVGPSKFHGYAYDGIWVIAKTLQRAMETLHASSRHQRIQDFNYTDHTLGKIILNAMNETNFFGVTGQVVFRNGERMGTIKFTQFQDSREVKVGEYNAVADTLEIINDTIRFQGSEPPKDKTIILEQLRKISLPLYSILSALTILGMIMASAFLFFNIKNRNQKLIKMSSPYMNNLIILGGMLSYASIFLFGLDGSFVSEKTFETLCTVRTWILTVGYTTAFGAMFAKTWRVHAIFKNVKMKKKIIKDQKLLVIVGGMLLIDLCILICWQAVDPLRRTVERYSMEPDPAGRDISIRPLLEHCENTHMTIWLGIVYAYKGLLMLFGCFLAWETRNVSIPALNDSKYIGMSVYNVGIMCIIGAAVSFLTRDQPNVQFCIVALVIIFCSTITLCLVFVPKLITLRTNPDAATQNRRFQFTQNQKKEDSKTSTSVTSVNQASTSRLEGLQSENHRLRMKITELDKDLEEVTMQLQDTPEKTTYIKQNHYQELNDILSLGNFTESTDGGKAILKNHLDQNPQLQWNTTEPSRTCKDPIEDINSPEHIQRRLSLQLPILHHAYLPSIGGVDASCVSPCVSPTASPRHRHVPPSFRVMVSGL
Text: Potassium currents: Voltage-gated potassium channel currents were evoked using a previously reported protocol with modifications (Plant 2006). The whole voltage-gated potassium current, IK+, and the delayed rectifier current, IDR were isolated with two voltage protocols. First, IK+ was evoked by 250 ms test pulses to between −80 and 90 mV from −80 mV following a 250 ms pre-pulse to −140 mV. Then, the protocol was repeated using a −50 mV pre-pulse to inactivate IK+ and isolate IDR. The inactivating component of the current, IKA, was isolated by subtracting IDR from IK+ recorded in the same cells. The standing outward potassium leak current, IKso, and the inwardly rectifying potassium current, IKIR, were studied as previously reported with modifications (Plant 2002). Cells were held at −20 mV, and the membrane potential was ramped to −120 mV over a period of 100 ms before returning to −20 mV. Ramp hyperpolarizations were repeated every 20 seconds.

[6] = test system: anxiety-like behavior in B6 mice; test: Light-dark (LD) box test; format: in vivo, mouse; settings: MG 50 mg/kg i.p.
Protocol: (§1) LD box test: Mice were placed in the light compartment, and activity was monitored for 4 minutes. The light compartment was illuminated to approximately 1,000 lux, and the dark compartment was illuminated to approximately 5 lux. Behavior was recorded and automatically scored by the Noldus Ethovision System.
as §1, with “Ten minutes post-injection, mice” for “Mice”, “three” for “4”

[7] = test system: anxiety-like behavior in C57BL6/J mice; test: OFT after bilateral microinjection into the basolateral amygdala (BLA); settings: MG 12 uM or 24 uM, 0.5 ul bilateral into BLA, over 30 m
[8] = test system: motor coordination in mice; test: Balance beam test; format: in vivo, mouse; settings: 300 mg/kg i.p., B6 mice
Protocol: The balance beam was 97 cm×9.5 mm and elevated to 46 cm. Mice were tested on the balance beam, and missteps were counted.
Balance beam: The balance beam test was performed as described above. Ten minutes post-injection, mice were tested on the balance beam, and missteps were recorded.

CC(=O)C=O [MG, methylglyoxal]
MG concentrations that induce neuronal cell death in vitro [1]: 100-1,000 μM
effect on major sodium currents [2]: did not affect the major sodium currents
duration of EEG-confirmed seizures [3]: reduced seizure duration
latency to first EEG-confirmed seizure [3]: delayed seizure onset
number of EEG-confirmed seizures [3]: reduced the number of seizures
EC50 ([4]; read-out: EC50 of evoked inward currents in CGN, whole-cell voltage clamp): 12 ± 0.7 µM
EC50 ([4]; whole-cell current clamp, read-out: EC50 of depolarization of CGN): 10.5 ± 0.5 µM
activation of GABAB receptors [5]: did not activate GABAB receptors
number of transitions between compartments [6]: without affecting the number of transitions
time spent in the light compartment ([6]; 10 min post-injection): increased time spent in the light compartment
center duration in the OFT [7]: increased center duration in the OFT
footslips on the balance beam (ataxia) [8]: made more footslips than vehicle-treated mice
